Source: patent US9499550B2 (BRISTOL-MYERS SQUIBB COMPANY, priority 2012, dated 2016)
Where two headings read alike, the source gives them in different places.

Legend:
[1] = tested on: HCV genotype 1a (H77 strain) replicon in HUH-7 cells; assay: HCV replicon luciferase reporter assay, genotype 1a; assay type: cell-based; conditions: 3 days incubation
How it was run: (§1)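 Replicon inhibition for both genotypes was measured as Renilla luciferase signal (EnduRen, 7.5 μM final, 2 h) after 3-day, 37° C exposure of replicon-bearing HUH-7 cells in 4% FCS DMEM, 0.5% DMSO. The 1b construct carries S1179I; the 1a H77 construct carries P1496L and S2204I. Twenty-point, 3-fold dilutions were fitted four-parametrically for EC50, and CC50 was taken from multiplexed Cell Titer-Blue.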

[2] = tested on: HCV genotype 1b (Con1) replicon in HUH-7 cells; assay: HCV replicon luciferase reporter assay, genotype 1b; assay type: cell-based; conditions: 3 days incubation
How it was run: as §1

[3] = Hepatitis C virus, Huh-7, 72 h, HCV genotype 1a replicon luciferase, read-out: LE_1a (EC50, range)
[4] = Hepatitis C virus, Huh-7, 72 h, HCV genotype 1b replicon luciferase, read-out: LE_1b (EC50, range)
[5] = Hepatitis C virus, GETYPE1A, Huh-7, 72 h, HCV genotype 1a replicon luciferase, read-out: LE_1a (EC50, range)
[6] = Hepatitis C virus, GETYPE1B, Huh-7, 72 h, HCV genotype 1b replicon luciferase, read-out: LE_1b (EC50, range)
[7] = Hepatitis C virus, Huh-7, 72 h, HCV genotype 1a replicon luciferase assay, range class, read-out: LE_1a (EC50, range)
[8] = Hepatitis C virus, Huh-7, 72 h, HCV genotype 1b replicon luciferase assay, range class, read-out: LE_1b (EC50, range)

Q: For `CCCOc1ccc2c(O[C@@H]3C[C@H]4C(=O)N[C@]5(C(=O)NS(=O)(=O)C6CC6)C[C@H]5/C=C\CC[C@@H](C)C[C@@H](C)[C@H](NC(=O)OC(C)(C)C)C(=O)N4C3)nccc2c1` [Compound 5169, tert-butyl ((2R,6S,7R,9R,13aS,14aR,16aS,Z)-14a-((cyclopropylsulfonyl)carbamoyl)-7,9-dimethyl-5,16-dioxo-2-((6-propoxyisoquinolin-1-yl)oxy)-1,2,3,5,6,7,8,9,10,11,13a,14,14a,15,16,16a-hexadecahydrocyclopropa[e]pyrrolo[1,2-a][1,4]diazacyclopentadecin-6-yl)carbamate], which EC50 [1, 3] is on record?
A: < 5.46 nM

Q: What about the EC50 [2, 4] of the same compound?
A: < 5.46 nM

Q: Which results are given for `COc1ccc2nc(C)c(O[C@@H]3C[C@H]4C(=O)N[C@]5(C(=O)NS(=O)(=O)C6(CF)CC6)C[C@H]5/C=C\CC[C@@H](C)C[C@@H](C)[C@H](NC(=O)OC(C)(C)C)C(=O)N4C3)nc2c1` [Compound 4222, tert-butyl (2R,6S,7R,9R,13aS,14aR,16aS,Z)-14a-(1-(fluoromethyl)cyclopropylsulfonylcarbamoyl)-2-(7-methoxy-3-methylquinoxalin-2-yloxy)-7,9-dimethyl-5,16-dioxo-1,2,3,5,6,7,8,9,10,11,13a,14,14a,15,16,16a-hexadecahydrocyclopropa[e]pyrrolo[1,2-a][1,4]diazacyclopentadecin-6-ylcarbamate]?
A: EC50 [1, 3]: < 5.46 nM; EC50 [2, 4]: < 5.46 nM

Q: Which results are given for `CCOc1ccc2ncc(O[C@@H]3C[C@H]4C(=O)N[C@]5(C(=O)NS(=O)(=O)C6(CF)CC6)C[C@H]5/C=C\CC[C@@H](C)C[C@@H](C)[C@H](NC(=O)OC(C)(C)C(F)(F)F)C(=O)N4C3)cc2c1` [Compound 4296]?
A: EC50 ([1]; Hepatitis C virus, GETYPE1A, Huh-7, 72 h, HCV genotype 1a replicon luciferase, read-out: LE_1a (EC50)): 11.9 nM; EC50 [1, 5]: 5.01 to 35 nM; EC50 ([2]; Hepatitis C virus, GETYPE1B, Huh-7, 72 h, HCV genotype 1b replicon luciferase, read-out: LE_1b (EC50)): 5.46 nM; EC50 [2, 6]: 5.01 to 35 nM

Q: Which EC50 [1, 7] does the source give for `COCCn1nc(O[C@@H]2C[C@H]3C(=O)N[C@]4(C(=O)NS(=O)(=O)C5CC5)C[C@H]4/C=C\CC[C@H](C)C[C@@H](C)[C@H](NC(=O)OC(C)(C)C(F)(F)F)C(=O)N3C2)c2ccccc2c1=O` [Compound 1021, 1,1,1-trifluoro-2-methylpropan-2-yl((2R,6S,7R,9S,13aS,14aR,16aS,Z)-14a-((cyclopropylsulfonyl)carbamoyl)-2-((3-(2-methoxyethyl)-4-oxo-3,4-dihydrophthalazin-1-yl)oxy)-7,9-dimethyl-5,16-dioxo-1,2,3,5,6,7,8,9,10,11,13a,14,14a,15,16,16a-hexadecahydrocyclopropa[e]pyrrolo[1,2-a][1,4]diazacyclopentadecin-6-yl)carbamate] here?
A: > 87.4 nM

Q: And the EC50 [2, 8]?
A: > 87.4 nM

Q: Which EC50 [1, 7] does the source give for `COc1ccc2c(O[C@@H]3C[C@H]4C(=O)N[C@]5(C(=O)NS(=O)(=O)C6(CF)CC6)C[C@H]5/C=C\CC[C@@H](C)C[C@@H](C)[C@H](NC(=O)OC(C)(C)C)C(=O)N4C3)nc(Cl)cc2c1` [Compound 1163, tert-butyl ((2R,6S,7R,9R,13aS,14aR,16aS,Z)-2-((3-chloro-6-methoxyisoquinolin-1-yl)oxy)-14a-(((1-(fluoromethyl)cyclopropyl)sulfonyl)carbamoyl)-7,9-dimethyl-5,16-dioxo-1,2,3,5,6,7,8,9,10,11,13a,14,14a,15,16,16a-hexadecahydrocyclopropa[e]pyrrolo[1,2-a][1,4]diazacyclopentadecin-6-yl)carbamate] here?
A: < 5.46 nM

Q: And the EC50 [2, 8]?
A: < 5.46 nM

Q: Which EC50 [1, 7] does the source give for `COc1ccc2c(O[C@@H]3C[C@H]4C(=O)N[C@]5(C(=O)NS(=O)(=O)C6CC6)C[C@H]5/C=C\CC[C@H](C)C[C@@H](C)[C@H](NC(=O)OC(C)(C)C)C(=O)N4C3)nccc2c1` [Compound 1067, tert-butyl ((2R,6S,7R,9S,13aS,14aR,16aS,Z)-14a-((cyclopropylsulfonyl)carbamoyl)-2-((6-methoxyisoquinolin-1-yl)oxy)-7,9-dimethyl-5,16-dioxo-1,2,3,5,6,7,8,9,10,11,13a,14,14a,15,16,16a-hexadecahydrocyclopropa[e]pyrrolo[1,2-a][1,4]diazacyclopentadecin-6-yl)carbamate] here?
A: < 5.46 nM

Q: What about the EC50 [2, 8] of the same compound?
A: < 5.46 nM

Q: Which results are given for `CC(C)Oc1cnc(O[C@@H]2C[C@H]3C(=O)N[C@]4(C(=O)NS(=O)(=O)C5CC5)C[C@H]4/C=C\CC[C@@H](C)C[C@@H](C)[C@H](NC(=O)OC(C)(C)C(F)(F)F)C(=O)N3C2)c2cccc(Cl)c12` [Compound 4017]?
A: EC50 [1, 3]: < 5.46 nM; EC50 [2, 4]: < 5.46 nM

Q: Which results are given for `CCn1nc(O[C@@H]2C[C@H]3C(=O)N[C@]4(C(=O)NS(=O)(=O)C5CC5)C[C@H]4/C=C\CC[C@H](C)C[C@@H](C)[C@H](NC(=O)OC(C)(C)C(F)(F)F)C(=O)N3C2)c2ccccc2c1=O` [Compound 5066, 1,1,1-trifluoro-2-methylpropan-2-yl((2R,6S,7R,9S,13aS,14aR,16aS,Z)-14a-((cyclopropylsulfonyl)carbamoyl)-2-((3-ethyl-4-oxo-3,4-dihydrophthalazin-1-yl)oxy)-7,9-dimethyl-5,16-dioxo-1,2,3,5,6,7,8,9,10,11,13a,14,14a,15,16,16a-hexadecahydrocyclopropa[e]pyrrolo[1,2-a][1,4]diazacyclopentadecin-6-yl)carbamate]?
A: EC50 [1, 3]: > 87.4 nM; EC50 [2, 4]: > 87.4 nM

Q: What does the source list for `CCOc1ccc2c(O[C@@H]3C[C@H]4C(=O)N[C@]5(C(=O)NS(=O)(=O)C6(C)CC6)C[C@H]5/C=C\CC[C@@H](C)C[C@@H](C)[C@H](NC(=O)NC(C)(C)C(F)(F)F)C(=O)N4C3)nccc2c1` [Compound 5144, (2R,6S,7R,9R,13aS,14aR,16aS,Z)-2-((6-ethoxyisoquinolin-1-yl)oxy)-7,9-dimethyl-N-((1-methylcyclopropyl)sulfonyl)-5,16-dioxo-6-(3-(1,1,1-trifluoro-2-methylpropan-2-yl)ureido)-1,2,3,5,6,7,8,9,10,11,13a,14,14a,15,16,16a-hexadecahydrocyclopropa[e]pyrrolo[1,2-a][1,4]diazacyclopentadecine-14a-carboxamide]?
A: EC50 [1, 3]: 4.82 to 103 nM; EC50 [2, 4]: < 5.46 nM

Q: With `CC[C@@H]1C[C@@H](C)CC/C=C\[C@@H]2C[C@@]2(C(=O)NS(=O)(=O)C2(C)CC2)NC(=O)[C@@H]2C[C@@H](Oc3nccc4c(OC)cccc34)CN2C(=O)[C@H]1NC(=O)OC(C)(C)C(F)(F)F` [Compound 3027, 1,1,1-trifluoro-2-methylpropan-2-yl((2R,6S,7R,9S,13aS,14aR,16aS,Z)-7-ethyl-2-((5-methoxyisoquinolin-1-yl)oxy)-9-methyl-14a-(((1-methylcyclopropyl)sulfonyl)carbamoyl)-5,16-dioxo-1,2,3,5,6,7,8,9,10,11,13a,14,14a,15,16,16a-hexadecahydrocyclopropa[e]pyrrolo[1,2-a][1,4]diazacyclopentadecin-6-yl)carbamate] as the compound, how does the EC50 [1, 7] read?
A: 4.82 to 103 nM

Q: What about the EC50 [2, 8] of the same compound?
A: 4.82 to 103 nM

Q: With `C[C@@H]1CC/C=C\[C@@H]2C[C@@]2(C(=O)NS(=O)(=O)C2(CF)CC2)NC(=O)[C@@H]2C[C@@H](Oc3nc4c(c5ccccc35)OCCC4)CN2C(=O)[C@@H](NC(=O)OC(C)(C)C(C)(F)F)[C@H](C)C1` [Compound 6040, 3,3-difluoro-2-methylbutan-2-yl((2R,6S,7R,9R,13aS,14aR,16aS,Z)-2-((3,4-dihydro-2H-pyrano[3,2-c]isoquinolin-6-yl)oxy)-14a-(((1-(fluoromethyl)cyclopropyl)sulfonyl)carbamoyl)-7,9-dimethyl-5,16-dioxo-1,2,3,5,6,7,8,9,10,11,13a,14,14a,15,16,16a-hexadecahydrocyclopropa[e]pyrrolo[1,2-a][1,4]diazacyclopentadecin-6-yl)carbamate] as the compound, how does the EC50 ([1]; HCV genotype 1a replicon luciferase, read-out: LE_1a (EC50, range)) read?
A: 1.01 to 5 nM

Q: And the EC50 ([2]; HCV genotype 1b replicon luciferase, read-out: LE_1b (EC50, range))?
A: 0.51 to 1 nM

Q: What does the source list for `COc1cnc(O[C@@H]2C[C@H]3C(=O)N[C@]4(C(=O)NS(=O)(=O)C5CC5)C[C@H]4/C=C\CC[C@@H](C)C[C@@H](C)[C@H](NC(=O)OC(C)(C)C)C(=O)N3C2)c2cc(Cl)ccc12` [Compound 1161, tert-butyl ((2R,6S,7R,9R,13aS,14aR,16aS,Z)-2-((7-chloro-4-methoxyisoquinolin-1-yl)oxy)-14a-((cyclopropylsulfonyl)carbamoyl)-7,9-dimethyl-5,16-dioxo-1,2,3,5,6,7,8,9,10,11,13a,14,14a,15,16,16a-hexadecahydrocyclopropa[e]pyrrolo[1,2-a][1,4]diazacyclopentadecin-6-yl)carbamate]?
A: EC50 [1, 7]: < 5.46 nM; EC50 [2, 8]: < 5.46 nM

Q: What does the source list for `CC[C@@H]1C[C@H](C)CC/C=C\[C@@H]2C[C@@]2(C(=O)NS(=O)(=O)C2(C)CC2)NC(=O)[C@@H]2C[C@@H](Oc3nc(OC)cc4cc(OC)c(F)cc34)CN2C(=O)[C@H]1NC(=O)OC1(C(F)(F)F)CCCOC1` (stereo partly drawn) [Compound 1189]?
A: EC50 [1, 5]: 1.01 to 5 nM; EC50 [2, 6]: 0.51 to 1 nM

Q: Which EC50 [1, 3] does the source give for `COc1ccc2c(O[C@@H]3C[C@H]4C(=O)N[C@]5(C(=O)NS(=O)(=O)C6CC6)C[C@H]5/C=C\CC[C@@H](C)C[C@@H](C)[C@H](NC(=O)O[C@@H]5C[C@@H]6C[C@@H]6C5)C(=O)N4C3)nc(-c3ccccc3)cc2c1` [Compound 5188, (1R,3r,5S)-bicyclo[3.1.0]hexan-3-yl((2R,6S,7R,9R,13aS,14aR,16aS,Z)-14a-((cyclopropylsulfonyl)carbamoyl)-2-((6-methoxy-3-phenylisoquinolin-1-yl)oxy)-7,9-dimethyl-5,16-dioxo-1,2,3,5,6,7,8,9,10,11,13a,14,14a,15,16,16a-hexadecahydrocyclopropa[e]pyrrolo[1,2-a][1,4]diazacyclopentadecin-6-yl)carbamate] here?
A: < 5.46 nM

Q: What about the EC50 [2, 4] of the same compound?
A: < 5.46 nM
